This is an account of results in patent US10266497B2 (ABIDE THERAPEUTICS, INC., priority 2017, dated 2019).

Experiment [1] deals with T1, MAGL (Homo sapiens, UniProt Q99685).
T1 sequence (Q99685 1-303): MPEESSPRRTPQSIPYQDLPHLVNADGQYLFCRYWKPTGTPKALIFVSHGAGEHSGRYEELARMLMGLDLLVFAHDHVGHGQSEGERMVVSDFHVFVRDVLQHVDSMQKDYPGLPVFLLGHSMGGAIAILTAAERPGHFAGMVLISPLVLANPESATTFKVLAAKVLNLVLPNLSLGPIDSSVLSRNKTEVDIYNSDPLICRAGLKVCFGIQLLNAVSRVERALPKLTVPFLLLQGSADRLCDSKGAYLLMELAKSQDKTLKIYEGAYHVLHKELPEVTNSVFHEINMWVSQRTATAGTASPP
Briefly: In vitro competitive activity-based protein profiling, MAGL, human. Conditions: read-out: MAGL % inh. 1 μM (human).
Protocol: (§1) Biological Evaluation In Vitro Competitive Activity-Based Protein Profiling.
(§2) Proteomes (mouse brain membrane fraction for mouse assays; human prefrontal cortex membrane fractions for human assays) (50 mL, 1.0 mg/mL total protein concentration) were preincubated with varying concentrations of inhibitors at 37° C. After 30 min, FP-Rh (1.0 mL, 50 mM in DMSO) was added and the mixture was incubated for another 30 min at 37° C. Reactions were quenched with SDS loading buffer (15 μL—4λ) and run on SDS-PAGE.

Experiment [2] addresses T2, FAAH (Mus musculus, UniProt O08914).
T2 sequence (O08914 1-579): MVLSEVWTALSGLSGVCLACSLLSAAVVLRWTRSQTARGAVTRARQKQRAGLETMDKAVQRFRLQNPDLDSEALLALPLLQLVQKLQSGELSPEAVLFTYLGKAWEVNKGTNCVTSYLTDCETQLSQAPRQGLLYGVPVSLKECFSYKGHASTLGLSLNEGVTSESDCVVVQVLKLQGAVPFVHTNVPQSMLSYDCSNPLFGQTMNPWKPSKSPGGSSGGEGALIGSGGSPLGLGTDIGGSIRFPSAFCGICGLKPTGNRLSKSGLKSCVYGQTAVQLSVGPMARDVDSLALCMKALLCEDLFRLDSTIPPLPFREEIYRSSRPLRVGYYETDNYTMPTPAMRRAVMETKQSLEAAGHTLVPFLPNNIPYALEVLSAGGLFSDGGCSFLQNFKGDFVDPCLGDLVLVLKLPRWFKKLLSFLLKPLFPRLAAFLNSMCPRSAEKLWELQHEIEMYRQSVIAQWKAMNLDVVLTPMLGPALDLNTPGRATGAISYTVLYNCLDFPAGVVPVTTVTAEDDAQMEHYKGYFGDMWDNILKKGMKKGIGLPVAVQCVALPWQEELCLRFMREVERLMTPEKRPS
In words: Mouse brain proteomes from inhibitor treated mice (oral gavage, sacrificed 4 h after administration), FAAH. The conditions noted are these: 5 mg/kg oral gavage, brain proteome 4 h after administration, read-out: FAAH % inh. 5 mg/kg (mouse). Details: mouse brain membrane fraction for mouse assays; from tissue; host or cells: mouse brain (membrane fraction in vitro; brain proteomes of treated C57Bl/6J mice in vivo). Format: in vivo.

The target in experiment [3] is T2, FAAH. Briefly: In vitro competitive activity-based protein profiling, FAAH, mouse. Conditions: read-out: FAAH % inh. 1 μM (mouse).
Protocol: as §1, §2
Experiment [4] addresses T3, FAAH (Homo sapiens, UniProt O00519).
T3 sequence (O00519 1-579): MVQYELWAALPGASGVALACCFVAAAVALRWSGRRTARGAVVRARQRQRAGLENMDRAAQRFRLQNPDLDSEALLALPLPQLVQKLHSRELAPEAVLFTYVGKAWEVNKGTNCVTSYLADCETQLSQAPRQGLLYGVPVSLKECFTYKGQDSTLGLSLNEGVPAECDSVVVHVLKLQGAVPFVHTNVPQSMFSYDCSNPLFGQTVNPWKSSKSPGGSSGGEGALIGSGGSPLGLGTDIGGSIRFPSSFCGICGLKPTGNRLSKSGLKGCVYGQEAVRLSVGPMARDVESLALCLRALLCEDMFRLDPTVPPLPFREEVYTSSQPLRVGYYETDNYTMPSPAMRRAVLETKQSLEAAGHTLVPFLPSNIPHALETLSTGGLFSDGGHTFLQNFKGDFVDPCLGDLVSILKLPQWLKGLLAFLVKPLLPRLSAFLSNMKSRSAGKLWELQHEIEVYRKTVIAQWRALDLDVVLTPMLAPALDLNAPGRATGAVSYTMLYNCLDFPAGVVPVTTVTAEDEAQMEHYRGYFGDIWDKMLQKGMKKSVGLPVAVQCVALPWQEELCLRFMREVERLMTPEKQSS
In words: In vitro competitive activity-based protein profiling, FAAH, human. The conditions noted are these: for inhibition at 1 µM: read-out: FAAH % inh. 1 μM (human).

Experiment [5] deals with T4, MAGL (Mus musculus, UniProt O35678).
T4 sequence (O35678 1-303): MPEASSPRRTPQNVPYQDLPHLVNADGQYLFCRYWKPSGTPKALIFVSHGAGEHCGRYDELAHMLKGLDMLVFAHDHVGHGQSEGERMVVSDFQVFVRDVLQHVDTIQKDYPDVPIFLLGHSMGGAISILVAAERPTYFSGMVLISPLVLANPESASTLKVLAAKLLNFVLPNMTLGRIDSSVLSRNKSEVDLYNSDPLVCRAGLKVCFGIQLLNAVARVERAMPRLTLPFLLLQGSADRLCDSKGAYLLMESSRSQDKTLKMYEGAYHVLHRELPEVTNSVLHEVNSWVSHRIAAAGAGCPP
Briefly: Mouse brain proteomes from inhibitor treated mice (oral gavage, sacrificed 4 h after administration). The experiment is classed as in vivo. Also on record: mouse brain membrane fraction for mouse assays; from tissue; host or cells: mouse brain (membrane fraction in vitro; brain proteomes of treated C57Bl/6J mice in vivo). The conditions noted are these: 5 mg/kg oral gavage, brain proteome 4 h after administration, read-out: MAGL % inh. 5 mg/kg (mouse).

The target of experiment [6] is T4, MAGL. In words: In vitro competitive activity-based protein profiling, MAGL, mouse. Conditions: read-out: MAGL % inh. 1 μM (mouse).

In the case of `O=C(O)c1ccn(C(=O)N2CCN(Cc3ccc(C(F)(F)F)c(N4CCCC4)c3)CC2)n1` [Example 7, 1-(4-(3-(Pyrrolidin-1-yl)-4-(trifluoromethyl)benzyl)piperazine-1-carbonyl)-1H-pyrazole-3-carboxylic Acid], the inhibition at 1 µM on MAGL [1] was greater than 75%; on FAAH [3], 0 to 25%; on FAAH [4], 0 to 25%; on MAGL [6], greater than 75%. The inhibition at 5 mg/kg at FAAH [2] and on MAGL [5] was 0 to 25% in each case.

Turning to `Cc1c(CN2CCN(C(=O)n3ccc(C(=O)O)n3)CC2)[nH]c2ccc(Cl)cc12` [Example 188, 1-(4-((5-chloro-3-methyl-1H-indol-2-yl)methyl)piperazine-1-carbonyl)-1H-pyrazole-3-carboxylic acid], the inhibition at 1 µM on MAGL [1] is greater than 75%; at FAAH [3] it was 0 to 25%; at FAAH [4] it was 0 to 25%; at MAGL [6], greater than 75%. The inhibition at 5 mg/kg at FAAH [2] and on MAGL [5] was 0 to 25% throughout.

For orientation: IC50 means the concentration that gives 50% inhibition. Low readings indicate greater potency, high ones weaker potency. Regarding `O=C(O)c1ccn(C(=O)N2C[C@H]3C[C@H](OCc4cccc(C(F)(F)F)c4)C[C@H]3C2)n1` [Example 157, 1-(trans-5-((3-(trifluoromethyl)benzyl)oxy)octa-hydrocyclopenta[c]pyrrole-2-carbonyl)-1H-pyrazole-3-carboxylic acid], the inhibition at 1 µM at MAGL [1], at FAAH [3], on FAAH [4] and at MAGL [6] was greater than 75% in each case. Also, the inhibition at 5 mg/kg at FAAH [2] and on MAGL [5] was 0 to 25% throughout. The IC50 at FAAH [4] lay within 100 to 1000 nM.

Take `CN(Cc1ccc(C(F)(F)F)cc1N1C2CCC1COC2)C1(C)CCN(C(=O)n2ccc(C(=O)O)n2)CC1` [Example 207, 1-(4-((2-(3-oxa-8-azabicyclo[3.2.1]octan-8-yl)-4-(trifluoromethyl)benzyl)(methyl)amino)-4-methyl-piperidine-1-carbonyl)-1H-pyrazole-3-carboxylic acid]: the inhibition at 1 µM on MAGL [1] was greater than 75%; at FAAH [3] it was 0 to 25%; at FAAH [4], 0 to 25%; at MAGL [6] it was greater than 75%. The inhibition at 5 mg/kg at FAAH [2] and at MAGL [5] was 0 to 25% each time.

Turning to `O=C(O)c1ccn(C(=O)N2C[C@H]3C[C@H](OCc4ccc(Oc5ccc(Cl)cc5)cc4)C[C@H]3C2)n1` [Example 55, 1-(trans-5-((4-(4-chlorophenoxy)benzyl)oxy)octa-hydrocyclopenta[c]pyrrole-2-carbonyl)-1H-pyrazole-3-carboxylic acid], the inhibition at 1 µM on MAGL [1], on FAAH [3], on FAAH [4] and at MAGL [6] was greater than 75% throughout. Besides, the inhibition at 5 mg/kg on FAAH [2] and at MAGL [5] was 0 to 25% throughout.

As to `C[C@H]1CCCN1c1cc(C(F)(F)F)ccc1CN1CCN(C(=O)n2ccc(C(=O)O)n2)CC1` [Example 104, (S)-1-(4-(2-(2-methylpyrrolidin-1-yl)-4-(trifluoromethyl)benzyl)piperazine-1-carbonyl)-1H-pyrazole-3-carboxylic acid], the inhibition at 1 µM is greater than 75% on MAGL [1], 0 to 25% at FAAH [3], 0 to 25% on FAAH [4] and greater than 75% on MAGL [6]. Besides, the inhibition at 5 mg/kg at FAAH [2] and at MAGL [5] was 0 to 25% throughout.

Take `O=C(O)c1nn(C(=O)N2CCC3(CCCN3Cc3cc4ccc(C(F)(F)F)cc4s3)CC2)cc1Cl` [Example 139, 4-chloro-1-(1-((6-(trifluoromethyl)benzo[b]thiophen-2-yl)methyl)-1,8-diazaspiro[4.5]decane-8-carbonyl)-1H-pyrazole-3-carboxylic acid]: the inhibition at 1 µM on MAGL [1], on FAAH [3], on FAAH [4] and on MAGL [6] was greater than 75% throughout. Further, the inhibition at 5 mg/kg at FAAH [2] and at MAGL [5] was 0 to 25% in each case.

As for `O=C(O)c1ccn(C(=O)N2CCN(Cc3cccc(Oc4ccc(Cl)cc4)c3)CC2)n1` [Example 98, 1-(4-(3-(4-chlorophenoxy)benzyl)piperazine-1-carbonyl)-1H-pyrazole-3-carboxylic acid], the inhibition at 1 µM at MAGL [1], on FAAH [3], on FAAH [4] and on MAGL [6] was greater than 75% in each case. For the same molecule, the inhibition at 5 mg/kg at FAAH [2] and at MAGL [5] was 0 to 25% each time. This molecule had an IC50 at FAAH [4] of 100 to 1000 nM.

On to `O=C(O)c1ccn(C(=O)N2CCN(Cc3ccc(C(F)(F)F)cc3N3CCN(C4CC4)CC3)CC2)n1` [Example 6, 1-(4-(2-(4-Cyclopropylpiperazin-1-yl)-4-(trifluoromethyl)benzyl)piperazine-1-carbonyl)-1H-pyrazole-3-carboxylic Acid], for which the inhibition at 1 µM was greater than 75% on MAGL [1], 0 to 25% on FAAH [3], 0 to 25% on FAAH [4] and greater than 75% on MAGL [6]. Also, the inhibition at 5 mg/kg on FAAH [2] and at MAGL [5] was 0 to 25% throughout.

Take `Cc1cn(C(=O)N2CCC3(CC2)CN(Cc2ccc(C(F)(F)F)cc2N2CCCC2)C3)nc1C(=O)O` [Example 135, 4-methyl-1-(2-(2-(pyrrolidin-1-yl)-4-(trifluoromethyl)benzyl)-2,7-diazaspiro[3.5]non-ane-7-carbonyl)-1H-pyrazole-3-carboxylic acid]: the inhibition at 1 µM at MAGL [1] is greater than 75%; at FAAH [3] it was 0 to 25%; on FAAH [4], 0 to 25%; at MAGL [6] it was greater than 75%. The inhibition at 5 mg/kg on FAAH [2] and on MAGL [5] was 0 to 25% throughout.

In the case of `O=C(O)c1ccn(C(=O)N2CCN(Cc3ccc(C(F)(F)F)cc3N3CC[C@@H](F)C3)CC2)n1` [Example 101, (R)-1-(4-(2-(3-fluoropyrrolidin-1-yl)-4-(trifluoromethyl)benzyl)piperazine-1-carbonyl)-1H-pyrazole-3-carboxylic acid], the inhibition at 1 µM was greater than 75% on MAGL [1], 0 to 25% on FAAH [3], 0 to 25% at FAAH [4] and greater than 75% on MAGL [6]. The inhibition at 5 mg/kg at FAAH [2] and at MAGL [5] was 0 to 25% each time.
